Results: patent US10287255B2, “Compounds as histone deacetylase 6 inhibitors and pharmaceutical compositions comprising the same” (CHONG KUN DANG PHARMACEUTICAL CORP., priority 2014, dated 2019)
One block for each molecule: values may come before it.

Columns and labels:
human recombinant HDAC1 = target: T1, human recombinant HDAC1 (Homo sapiens, UniProt Q13547); experiment: HDAC1 enzyme activity inhibition assay (in vitro, fluorimetric); assay type: biochemical; settings: human recombinant HDAC1, fluorimetric kit, 30° C. 60 minutes
T1 construct: purchased Enzo Life Science BML-SE456
Outline: (§1)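 IC50 values derive from fluorescence (Ex 360, Em 460) after developer treatment (30 min) of reactions of recombinant human HDAC1 or HDAC6 with 10 μM Fluor de Lys-SIRT1 substrate (60 min, 30 °C). Compounds were serially diluted 5-fold; 0.3 μg enzyme was used for HDAC1, with HDAC6 tested identically.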

human recombinant HDAC6 = target: T2, human recombinant HDAC6 (Homo sapiens, UniProt Q9UBN7); experiment: HDAC6 enzyme activity inhibition assay (in vitro, fluorimetric); assay type: biochemical; settings: for HDAC6 selectivity (fold): HDAC6 selectivity over HDAC1; for IC50: human recombinant HDAC6, fluorimetric kit, same protocol as HDAC1
T2 construct: purchased Calbiochem 382180
T2 sequence (Q9UBN7 1-1215): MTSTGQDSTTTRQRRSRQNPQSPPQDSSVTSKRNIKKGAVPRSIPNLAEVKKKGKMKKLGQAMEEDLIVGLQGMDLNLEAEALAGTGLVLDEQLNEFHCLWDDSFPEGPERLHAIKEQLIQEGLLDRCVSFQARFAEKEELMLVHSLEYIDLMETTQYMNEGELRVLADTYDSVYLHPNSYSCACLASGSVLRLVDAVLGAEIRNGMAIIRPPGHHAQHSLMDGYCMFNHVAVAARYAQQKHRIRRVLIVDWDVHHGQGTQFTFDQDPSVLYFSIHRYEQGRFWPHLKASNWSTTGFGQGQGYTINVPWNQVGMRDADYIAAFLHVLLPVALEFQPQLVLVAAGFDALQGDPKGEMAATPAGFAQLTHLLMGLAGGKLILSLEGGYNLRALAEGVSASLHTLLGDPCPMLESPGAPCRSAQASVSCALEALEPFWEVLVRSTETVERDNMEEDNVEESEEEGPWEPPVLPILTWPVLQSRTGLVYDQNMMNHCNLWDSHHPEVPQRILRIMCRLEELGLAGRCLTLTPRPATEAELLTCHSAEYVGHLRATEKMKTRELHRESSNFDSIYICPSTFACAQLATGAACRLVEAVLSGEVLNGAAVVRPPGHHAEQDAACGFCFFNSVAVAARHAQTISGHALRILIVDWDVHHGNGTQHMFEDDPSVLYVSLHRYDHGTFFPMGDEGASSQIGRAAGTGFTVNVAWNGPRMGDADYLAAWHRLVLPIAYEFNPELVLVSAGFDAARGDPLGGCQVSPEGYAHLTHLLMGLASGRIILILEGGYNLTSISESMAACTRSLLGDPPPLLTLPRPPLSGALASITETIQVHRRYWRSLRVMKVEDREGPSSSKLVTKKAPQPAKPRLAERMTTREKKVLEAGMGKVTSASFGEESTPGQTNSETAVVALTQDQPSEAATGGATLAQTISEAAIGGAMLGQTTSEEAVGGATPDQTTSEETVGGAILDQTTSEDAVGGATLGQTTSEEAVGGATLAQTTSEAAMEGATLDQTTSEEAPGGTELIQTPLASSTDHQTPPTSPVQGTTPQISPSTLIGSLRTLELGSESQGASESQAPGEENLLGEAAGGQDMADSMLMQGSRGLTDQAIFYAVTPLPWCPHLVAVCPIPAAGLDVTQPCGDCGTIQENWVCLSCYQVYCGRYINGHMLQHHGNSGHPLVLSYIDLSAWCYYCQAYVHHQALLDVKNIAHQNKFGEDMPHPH
Outline: as §1

T1 sequence (Q13547 whole entry): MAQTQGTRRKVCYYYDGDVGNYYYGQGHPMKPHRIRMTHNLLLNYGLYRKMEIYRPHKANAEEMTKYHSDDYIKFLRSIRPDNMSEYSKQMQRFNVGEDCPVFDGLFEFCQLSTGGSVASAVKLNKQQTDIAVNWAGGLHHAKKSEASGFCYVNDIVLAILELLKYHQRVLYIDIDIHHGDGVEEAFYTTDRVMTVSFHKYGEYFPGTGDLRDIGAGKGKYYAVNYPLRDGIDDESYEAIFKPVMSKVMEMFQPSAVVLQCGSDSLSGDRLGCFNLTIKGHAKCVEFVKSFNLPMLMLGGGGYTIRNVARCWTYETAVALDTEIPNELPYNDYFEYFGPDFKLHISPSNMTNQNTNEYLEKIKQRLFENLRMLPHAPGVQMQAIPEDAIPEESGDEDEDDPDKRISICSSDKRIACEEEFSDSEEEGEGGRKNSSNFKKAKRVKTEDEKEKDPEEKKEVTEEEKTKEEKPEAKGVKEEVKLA

SMILES: C[C@@H]1CN(Cc2ccc3[nH]c(C(=O)NO)cc3c2)C[C@H](C)N1Cc1ccccc1 [Compound 569, 5-(((3R,5S)-4-benzyl-3,5-dimethylpiperazin-1-yl)methyl)-N-hydroxy-1H-indole-2-carboxamide]
IC50 (human recombinant HDAC1): > 10000 nM | HDAC6 selectivity (fold) (human recombinant HDAC6): 82 fold | IC50 (human recombinant HDAC6): 840 nM

SMILES: C[C@@H]1CN(Cc2ccccc2)C[C@H](C)N1Cc1ccc(C(=O)NO)cn1 [Compound 195, 6-(((2S,6R)-4-benzyl-2,6-dimethylpiperazin-1-yl)methyl)-N-hydroxynicotinamide]
IC50 (human recombinant HDAC1): 22400 nM | HDAC6 selectivity (fold) (human recombinant HDAC6): 55 fold | IC50 (human recombinant HDAC6): 410 nM

SMILES: C[C@@H]1CN(C(=O)c2ccc(C(=O)NO)cc2)C[C@H](C)N1Cc1ccccc1 [Compound 814, 4-((3R,5S)-4-benzyl-3,5-dimethylpiperazine-1-carbonyl)-N-hydroxybenzamide]
IC50 (human recombinant HDAC1): 20600 nM | HDAC6 selectivity (fold) (human recombinant HDAC6): 20 fold | IC50 (human recombinant HDAC6): 990 nM

SMILES: C[C@@H]1CN(Cc2ccc(C(=O)NO)cc2)C[C@H](C)N1C(=O)Cc1cccc(F)c1 [Compound 222, 4-(((3R,5S)-4-(2-(3-fluorophenyl)acetyl)-3,5-dimethylpiperazin-1-yl)methyl)-N-hydroxybenzamide]
IC50 (human recombinant HDAC1): 1600 nM | HDAC6 selectivity (fold) (human recombinant HDAC6): 16 fold | IC50 (human recombinant HDAC6): 100 nM

SMILES: CC(CN(C)Cc1ccccc1)NCc1cccc(CN2[C@H](C)CN(Cc3ccc(C(=O)NO)cc3)C[C@@H]2C)c1 (stereo partly drawn) [Compound 456, 4-(((3R,5S)-4-(3-(((1-(benzyl(methyl)amino)propan-2-yl)amino)methyl)benzyl)-3,5-dimethylpiperazin-1-yl)methyl)-N-hydroxybenzamide]
IC50 (human recombinant HDAC1): 11100 nM | HDAC6 selectivity (fold) (human recombinant HDAC6): 77 fold | IC50 (human recombinant HDAC6): 144 nM

SMILES: C[C@@H]1CN(Cc2ccc(C(=O)NO)cn2)C[C@H](C)N1Cc1ccccc1 [Compound 194, 6-(((3R,5S)-4-benzyl-3,5-dimethylpiperazin-1-yl)methyl)-N-hydroxynicotinamide]
IC50 (human recombinant HDAC1): 24800 nM | HDAC6 selectivity (fold) (human recombinant HDAC6): 303 fold | IC50 (human recombinant HDAC6): 82 nM

SMILES: COc1ccc(NC(=O)N2C[C@@H](C)N(Cc3ccc(C(=O)NO)cc3)[C@@H](C)C2)cc1 [Compound 165, (3R,5S)-4-(4-(hydroxycarbamoyl)benzyl)-N-(4-methoxyphenyl)-3,5-dimethylpiperazine-1-carboxamide]
IC50 (human recombinant HDAC1): 1400 nM | HDAC6 selectivity (fold) (human recombinant HDAC6): 2 fold | IC50 (human recombinant HDAC6): 560 nM

SMILES: C[C@@H]1CN(S(=O)(=O)c2ccc(CC(=O)NO)cc2)C[C@H](C)N1Cc1ccccc1 [Compound 820, 2-(4-(((3R,5S)-4-benzyl-3,5-dimethylpiperazin-1-yl)sulfonyl)phenyl)-N-hydroxyacetamide]
IC50 (human recombinant HDAC1): 2250 nM | HDAC6 selectivity (fold) (human recombinant HDAC6): 9 fold | IC50 (human recombinant HDAC6): 250 nM

SMILES: C[C@@H]1CN(Cc2ccc(-n3cnnc3)cc2)C[C@H](C)N1Cc1ccc(C(=O)NO)cc1 [Compound 304, 4-(((2S,6R)-4-(4-(4H-1,2,4-triazol-4-yl)benzyl)-2,6-dimethylpiperazin-1-yl)methyl)-N-hydroxybenzamide]
IC50 (human recombinant HDAC1): 2300 nM | HDAC6 selectivity (fold) (human recombinant HDAC6): 8 fold | IC50 (human recombinant HDAC6): 280 nM

SMILES: CC(c1ccc(C(=O)NO)cc1)N1C[C@@H](C)N(Cc2ccccc2)[C@@H](C)C1 (stereo partly drawn) [Compound 219, 4-(1-((3R,5S)-4-benzyl-3,5-dimethylpiperazin-1-yl)ethyl)-N-hydroxybenzamide]
IC50 (human recombinant HDAC1): > 10000 nM | HDAC6 selectivity (fold) (human recombinant HDAC6): >59 fold | IC50 (human recombinant HDAC6): 170 nM

SMILES: C[C@@H]1CN(Cc2ccc(/C=C/C(=O)NO)cc2)C[C@H](C)N1Cc1ccccc1 [Compound 172, (E)-3-(4-(((3R,5S)-4-benzyl-3,5-dimethylpiperazin-1-yl)methyl)phenyl)-N-hydroxyacrylamide]
IC50 (human recombinant HDAC1): 1300 nM | HDAC6 selectivity (fold) (human recombinant HDAC6): 35 fold | IC50 (human recombinant HDAC6): 38 nM

SMILES: C[C@@H]1CN(CCCCCC(=O)NO)C[C@H](C)N1Cc1ccccc1 [Compound 154, 6-((3R,5S)-4-benzyl-3,5-dimethylpiperazin-1-yl)-N-hydroxyhexanamide]
IC50 (human recombinant HDAC1): 8400 nM | HDAC6 selectivity (fold) (human recombinant HDAC6): 44 fold | IC50 (human recombinant HDAC6): 193 nM

Now from value to molecule:

IC50 (human recombinant HDAC1): 6900 nM | HDAC6 selectivity (fold) (human recombinant HDAC6): 34 fold | IC50 (human recombinant HDAC6): 204 nM
SMILES: CC(C)C(=O)N1[C@H](C)CN(Cc2ccc(C(=O)NO)cc2)C[C@@H]1C [Compound 296, N-hydroxy-4-(((3R,5S)-4-isobutyryl-3,5-dimethylpiperazin-1-yl)methyl)benzamide]

IC50 (human recombinant HDAC1): 200 nM | HDAC6 selectivity (fold) (human recombinant HDAC6): 3 fold | IC50 (human recombinant HDAC6): 55 nM
SMILES: C[C@@H]1CN(Cc2ccc(/C=C/C(=O)NO)cc2)C[C@H](C)N1Cc1cccc(CN2CCOCC2)c1 [Compound 472, (E)-3-(4-(((3R,5S)-3,5-dimethyl-4-(3-(morpholinomethyl)benzyl)piperazin-1-yl)methyl)phenyl)-N-hydroxyacrylamide]

IC50 (human recombinant HDAC1): > 10000 nM | HDAC6 selectivity (fold) (human recombinant HDAC6): >133 fold | IC50 (human recombinant HDAC6): 75 nM
SMILES: CC(C)NC(=O)N1[C@H](C)CN(Cc2ccc(C(=O)NO)cc2)C[C@@H]1C [Compound 098, (2S,6R)-4-(4-(hydroxycarbamoyl)benzyl)-N-isopropyl-2,6-dimethylpiperazine-1-carboxamide]

IC50 (human recombinant HDAC1): 5700 nM | HDAC6 selectivity (fold) (human recombinant HDAC6): 72 fold | IC50 (human recombinant HDAC6): 79 nM
SMILES: C[C@@H]1CN(Cc2ccc(C(=O)NO)cc2)C[C@H](C)N1C(=O)C1CC1 [Compound 295, 4-(((3R,5S)-4-(cyclopropanecarbonyl)-3,5-dimethylpiperazin-1-yl)methyl)-N-hydroxybenzamide]

IC50 (human recombinant HDAC1): 1000 nM | HDAC6 selectivity (fold) (human recombinant HDAC6): 22 fold | IC50 (human recombinant HDAC6): 46 nM
SMILES: C[C@@H]1CN(Cc2ccc(C(=O)NO)cc2)C[C@H](C)N1C(=O)c1cccc(CN2CCCC2)c1 [Compound 423, 4-(((3R,5S)-3,5-dimethyl-4-(3-(pyrrolidin-1-ylmethyl)benzoyl)piperazin-1-yl)methyl)-N-hydroxybenzamide]

IC50 (human recombinant HDAC1): 13400 nM | HDAC6 selectivity (fold) (human recombinant HDAC6): 611 fold | IC50 (human recombinant HDAC6): 22 nM
SMILES: CC(=O)N1CCN(Cc2cccc(CN3[C@H](C)CN(Cc4ccc(C(=O)NO)cc4)C[C@@H]3C)c2)CC1 [Compound 431, 4-(((3R,5S)-4-(3-((4-acetylpiperazin-1-yl)methyl)benzyl)-3,5-dimethylpiperazin-1-yl)methyl)-N-hydroxybenzamide]

IC50 (human recombinant HDAC1): 5000 nM | HDAC6 selectivity (fold) (human recombinant HDAC6): 35 fold | IC50 (human recombinant HDAC6): 142 nM
SMILES: CCN(CC)Cc1cccc(CN2[C@H](C)CN(Cc3ccc(C(=O)NO)cc3)C[C@@H]2C)c1 [Compound 426, 4-(((3R,5S)-4-(3-((diethylamino)methyl)benzyl)-3,5-dimethylpiperazin-1-yl)methyl)-N-hydroxybenzamide]

IC50 (human recombinant HDAC1): 13300 nM | HDAC6 selectivity (fold) (human recombinant HDAC6): 30 fold | IC50 (human recombinant HDAC6): 441 nM
SMILES: C[C@@H]1CN(Cc2ccc(C(=O)NO)cc2)C[C@H](C)N1C(=O)c1cccc(C2=CCC(C)(C)CC2)c1 [Compound 247, 4-(((3R,5S)-4-(4′,4′-dimethyl-2′,3′,4′,5′-tetrahydro-[1,1′-biphenyl]-3-carbonyl)-3,5-dimethylpiperazin-1-yl)methyl)-N-hydroxybenzamide]

IC50 (human recombinant HDAC1): 10900 nM | HDAC6 selectivity (fold) (human recombinant HDAC6): 105 fold | IC50 (human recombinant HDAC6): 104 nM
SMILES: C[C@@H]1CN(Cc2ccc(C(=O)NO)cc2)C[C@H](C)N1C(=O)c1cccc(CN2CCOCC2)c1 [Compound 439, 4-(((3R,5S)-3,5-dimethyl-4-(3-(morpholinomethyl)benzoyl)piperazin-1-yl)methyl)-N-hydroxybenzamide]

IC50 (human recombinant HDAC1): 8500 nM | HDAC6 selectivity (fold) (human recombinant HDAC6): 354 fold | IC50 (human recombinant HDAC6): 24 nM
SMILES: C[C@@H]1CN(Cc2ccc(C(=O)NO)cc2)C[C@H](C)N1Cc1cccc(-n2cccc2)c1 [Compound 255, 4-(((3R,5S)-4-(3-(1H-pyrrol-1-yl)benzyl)-3,5-dimethylpiperazin-1-yl)methyl)-N-hydroxybenzamide]

IC50 (human recombinant HDAC1): 2400 nM | HDAC6 selectivity (fold) (human recombinant HDAC6): 3 fold | IC50 (human recombinant HDAC6): 687 nM
SMILES: COc1cccc(CNC(=O)N2C[C@@H](C)N(Cc3ccc(C(=O)NO)cc3)[C@@H](C)C2)c1 [Compound 230, (3R,5S)-4-(4-(hydroxycarbamoyl)benzyl)-N-(3-methoxybenzyl)-3,5-dimethylpiperazine-1-carboxamide]
